The supplement of paper PMC10307832

Key:
Assay in all cases: relative viability (nuclei count vs DMSO), 5 days (fraction); higher = more cells survive
[1] = compound: CC1=CC(=C(N1C2=CC=C(C=C2)Cl)C)C(=O)CN3CCCCC3 [IU1-47] + COc1cc2c(Oc3ccc(NC(=O)C4(C(=O)Nc5ccc(F)cc5)CC4)cc3F)ccnc2cc1OCCCN1CCOCC1 [Foretinib] (partner 0.25 µM)
Procedure, shortened: (§1)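 After 5 days of treatment, lung cancer cells in 1536-well plates were fixed and stained in a single step (final 0.05% Triton X-100, 1% formaldehyde, 1 ug/ml Hoechst) and their nuclei counted on 4× images. Treatment had been applied by pin tool the day after seeding as one drug alone or as a fixed anchor-drug dose with five library-drug doses (not always all listed) in √10 steps. Relative viability is the nuclei count of treated wells divided by that of vehicle wells, and values are medians of duplicate plates.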

[2] = compound: Cc1nc(C(=O)NCC(=O)O)c(O)c2ccc(Oc3ccccc3)cc12 [FG-4592] + Nc1ncn([C@H]2C[C@H](O)[C@@H](CO)O2)c(=O)n1 [Decitabine] (partner 2 µM)
Procedure, shortened: as §1

[3] = compound: Cc1nc(C(=O)NCC(=O)O)c(O)c2ccc(Oc3ccccc3)cc12 [FG-4592] + CC1(C)CCC(c2ccc(Cl)cc2)=C(CN2CCN(c3ccc(C(=O)NS(=O)(=O)c4ccc(N[C@H](CCN5CCOCC5)CSc5ccccc5)c(S(=O)(=O)C(F)(F)F)c4)cc3)CC2)C1 [Navitoclax] (partner 0.5 µM)
Procedure, shortened: as §1

[4] = compound: CC1=CC(=C(N1C2=CC=C(C=C2)Cl)C)C(=O)CN3CCCCC3 [IU1-47] + Nc1ncn([C@H]2C[C@H](O)[C@@H](CO)O2)c(=O)n1 [Decitabine] (partner 2 µM)
Procedure, shortened: as §1

Cell Line | relative viability ([1]; first compound 0.08 µM) | relative viability ([1]; first compound 0.253 µM) | relative viability ([1]; first compound 0.8 µM) | relative viability ([1]; first compound 2.53 µM) | relative viability ([1]; first compound 8 µM) | relative viability ([2]; first compound 0.08 µM) | relative viability ([2]; first compound 0.253 µM) | relative viability ([2]; first compound 0.8 µM) | relative viability ([2]; first compound 2.53 µM) | relative viability ([2]; first compound 8 µM) | relative viability ([3]; first compound 0.08 µM) | relative viability ([3]; first compound 0.253 µM) | relative viability ([3]; first compound 0.8 µM) | relative viability ([3]; first compound 2.53 µM) | relative viability ([3]; first compound 8 µM) | relative viability ([4]; first compound 0.08 µM) | relative viability ([4]; first compound 0.253 µM) | relative viability ([4]; first compound 0.8 µM) | relative viability ([4]; first compound 2.53 µM) | relative viability ([4]; first compound 8 µM)
201T | 1.31 | 1.22 | 1.26 | 1.05 | 1.09 | 0.865 | 0.839 | 0.842 | 0.859 | 0.878 | 1.14 | 1.19 | 1.21 | 1.18 | 1.22 | 0.891 | 0.864 | 0.943 | 0.867 | 0.856
A549 | 0.9 | 1.09 | 0.983 | 1.08 | 0.889 | 0.276 | 0.214 | 0.378 | 0.281 | 0.207 | 1.25 | 1.21 | 1.27 | 1.28 | 1.08 | 0.284 | 0.321 | 0.335 | 0.253 | 0.221
A-427 | 1.08 | 1.16 | 1.22 |  | 0.93 | 0.535 | 0.558 | 0.503 | 0.558 | 0.567 | 0.829 | 0.739 | 0.802 | 1.08 | 0.914 | 0.556 | 0.583 | 0.517 | 0.547 | 0.5
ABC-1 | 1.1 | 0.985 | 1.06 |  | 1.07 | 0.87 | 1.09 |  | 0.898 | 0.957 |  |  |  |  |  | 1.23 | 1.32 | 0.922 |  | 1.19
BEN | 0.618 | 0.676 | 0.646 |  | 0.61 | 0.649 | 0.651 | 0.555 | 0.738 | 0.607 | 0.0578 | 0.0857 | 0.0654 | 0.0822 | 0.0636 | 0.713 | 0.729 | 0.848 | 0.507 | 0.668
CAL-12T | 1.12 | 1.1 | 1.13 | 1.11 | 1.03 |  |  |  |  |  | 1.22 | 1.18 | 1.33 | 1.05 | 0.764 |  |  |  |  | 
COR-L23 | 1.14 | 1.09 | 1.08 | 1.02 | 1.16 | 0.422 | 0.371 | 0.377 | 0.393 | 0.362 | 0.924 | 0.98 | 1.14 | 0.909 | 0.932 | 0.337 | 0.45 | 0.481 | 0.432 | 0.436
COR-L 105 | 0.907 | 1.14 | 1.22 | 1.2 | 1.4 | 0.649 | 0.691 | 0.597 | 0.621 | 0.641 | 0.777 | 0.709 | 0.919 | 0.595 | 0.74 | 0.793 | 0.624 | 0.677 | 0.751 | 0.66
Calu-6 | 1 | 1.01 | 0.934 | 0.917 | 0.874 |  |  |  |  |  | 0.795 | 0.734 | 0.974 | 0.914 | 0.87 |  |  |  |  | 
ChaGo-K-1 | 0.967 | 0.934 | 0.954 | 0.979 | 0.81 | 0.508 | 0.427 | 0.509 | 0.493 | 0.466 | 1.04 | 1.03 | 0.708 | 1.15 | 0.54 | 0.531 | 0.529 | 0.542 | 0.536 | 0.533
EBC-1 | 0.0995 | 0.107 | 0.0951 | 0.111 | 0.102 |  |  |  |  |  | 0.469 | 0.389 | 0.425 | 0.493 | 0.397 |  |  |  |  | 
EKVX | 1.12 | 1.19 | 0.769 | 0.265 | 0.85 | 0.325 | 0.368 | 0.287 | 0.319 | 0.341 | 0.848 | 0.813 | 0.855 | 1.09 | 1.04 | 0.376 | 0.339 | 0.364 |  | 0.352
EMC-BAC-2 | 1.07 | 1.11 | 0.984 | 1.02 | 1.05 | 1.01 | 0.962 |  | 1.02 | 0.942 | 1.13 | 1.12 | 1.11 | 1.16 | 1.09 | 1.07 | 1.03 | 0.996 | 1.07 | 0.924
EPLC-272H | 0.659 | 0.775 | 0.764 |  | 0.606 | 0.417 | 0.302 | 0.304 | 0.368 | 0.382 | 1.15 | 1.09 | 0.775 | 1.05 | 1.08 | 0.362 | 0.38 | 0.4 |  | 0.34
H3255 | 0.858 | 0.958 | 1.44 | 0.368 | 0.832 | 0.702 | 0.585 | 0.6 | 0.592 | 0.557 | 0.554 | 0.387 | 0.523 | 0.596 | 0.6 | 0.696 | 0.681 | 0.689 |  | 0.453
HARA | 1.02 | 1.1 | 1.04 |  | 0.742 |  |  |  | 0.676 | 0.559 | 1.15 | 1.09 |  | 1.13 | 1.15 | 0.494 |  | 0.524 | 0.489 | 0.486
HCC-15 | 1.07 | 1.11 | 1.15 | 1.01 | 1.05 | 0.677 | 0.585 | 0.606 | 0.661 | 0.765 | 0.758 | 0.698 | 0.686 | 0.714 | 0.744 | 0.619 | 0.586 | 0.63 | 0.552 | 0.461
HCC-44 |  |  |  |  |  | 0.902 | 0.941 | 0.914 | 0.93 | 1 | 1.01 | 0.935 | 0.997 | 1.11 | 1.03 | 0.982 | 0.938 | 0.966 | 0.917 | 1.03
HCC-78 | 0.608 | 0.57 | 0.615 | 0.551 | 0.606 | 0.666 |  | 0.694 | 0.652 | 0.562 | 0.904 | 0.766 | 0.442 | 0.773 | 0.806 | 0.643 | 0.682 | 0.71 | 0.668 | 0.723
